Measured values from patent US10208017B2, “Heterocycles capable of modulating T-cell responses, and methods of using same” (Nogra Pharma Limited, priority 2012, dated 2019).
Entries after “also recorded” stand apart in the source; their conditions may differ.

Assays:
[1] = system: interaction between lymphocyte-specific protein tyrosine kinase (LCK) and its chaperone Hsp90; assay: Immunoprecipitation of Lck and blotting for Hsp90; type: cell-based, Human; conditions: Lck immunoprecipitation, PHA stimulated lymphocytes
Procedure: (§1) Lymphocytes were seeded in a 6 well plate (1.0·10^7/well), pretreated for 10 minutes with S3.1, S3.4 or dexamethasone and stimulated for 10 minutes with PHA. The experiment was stopped by adding a large volume of ice cold PBS to the cells. The suspension was transferred to a tube, briefly spinned down in a centrifuge and the supernatant removed. The pellet was lysed by adding cold lysis buffer (0.1% NP40, 50 mM TrisHCl, 1 mM EDTA, 1 mM EGTA, 150 mM NaCl, 200 μM Na3VO4, 10 mM NaF and protease inhibitors) and incubating 20 minutes on ice.
The kinase Lck acts as a gate keeper to T cell receptor (TCR) related signaling as it is one of the first and most up stream kinases to be activated upon stimulation of the TCR. As downstream signaling of the TCR is inhibited by S3.1 and S3.4 treatment interactions with Lck were investigated by immunoprecipitating Lck and blotting for Hsp90. For immunprecipitation experiments 1.0·10^7 cells were used per condition. Cells were pelleted and lysed as described previously. The supernatant was precleared by adding 10 μl Protein A/G UltraLink resin (Pierce Biotechnology, Rockford, USA) for 30 minutes at 4° C. Beads were spinned down and discarded. Samples were incubated with 2 μg primary antibody and 25 μl beads for 2 hours at 4° C. Beads were washed with PBS, sample buffer was added and heated to 95° C. for 5 minutes.

phospho-Zap70 = assay: Western blot of TCR related signaling, phospho-Zap70; type: cell-based, Human; conditions: 10 min pretreatment, 10 min PHA; compared to a stimulated untreated control
Procedure: as §1
(§2) To investigate the cell signaling events that are affected by treatment with S3.1 and S3.4, lysates were supplemented with sample buffer (188 mM Tris-Cl (pH 6.8), 3% SDS, 30% glycerol, 0.01% bromophenol blue, 15% β-mercaptoethanol), heated to 95° C. for 5 minutes, cooled on ice and sonicated. Samples were then run on 10% SDS-PAGE gel, blotted to PVDF membrane and incubated with antibodies for phospho-Zap70 (Cell Signaling Technology (Beverly, Mass.)) and phospho-LAT (Cell Signaling Technology (Beverly, Mass.)). To show equal loading of the samples the blot was incubated with an antibody directed against beta-actin (Santa Cruz Biotechnology (Heidelberg, Germany)).

phospho-LAT = assay: Western blot of TCR related signaling, phospho-LAT; type: cell-based, Human; conditions: 10 min pretreatment, 10 min PHA; compared to a stimulated untreated control
Procedure: as §1, §2

[2] = system: Human peripheral blood lymphocytes (PBLs) stimulated with PHA; assay: Inhibition of T lymphocyte proliferation (tritiated thymidine); type: cell-based

## c1ccc(CN2CCCC(c3ccnc(SCCN4CCCC4)n3)C2)cc1 (stereo not shown) [S3.4, 4-(1-benzylpiperidin-3-yl)-2-(2-(pyrrolidin-1-yl)ethylthio)-pyrimidine]
[1]
  interaction between LCK and its chaperone Hsp90: lost
phospho-Zap70
  phosphorylation level of kinase Zap70: lower phosphorylation levels
phospho-LAT
  phosphorylation level of scaffolding protein LAT: lower phosphorylation levels
[2]
  effect on lymphocyte proliferation: antiproliferative effect; also recorded: shows effect on lymphocyte proliferation
